Assay results published in patent publication US10065990B2, “Cyclic peptide compound, and preparation method, pharmaceutical composition and use thereof” (HANGZHOU GUANYU BIO-MEDICAL CO., LTD, priority 2013, dated 2018).
Read-outs that look alike come from different tables or passages of the source.

Key:
HDAC8 = biological target: T1, HDAC8 (Homo sapiens, UniProt Q9BY41); assay: HDAC biochemical activity measurement (fluorescent substrate deacetylation); conditions: 37° C. 30 minutes
T1 sequence (Q9BY41 1-377): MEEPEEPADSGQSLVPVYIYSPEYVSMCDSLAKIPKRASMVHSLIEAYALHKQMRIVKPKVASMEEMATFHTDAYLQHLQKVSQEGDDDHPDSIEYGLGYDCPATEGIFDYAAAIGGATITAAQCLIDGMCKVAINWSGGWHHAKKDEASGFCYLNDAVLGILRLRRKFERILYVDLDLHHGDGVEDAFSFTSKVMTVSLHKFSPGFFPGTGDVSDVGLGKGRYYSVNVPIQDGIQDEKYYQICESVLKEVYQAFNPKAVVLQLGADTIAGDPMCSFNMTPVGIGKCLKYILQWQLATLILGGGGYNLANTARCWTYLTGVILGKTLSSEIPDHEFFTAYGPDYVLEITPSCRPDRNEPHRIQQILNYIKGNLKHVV

HDAC3 = HDAC3 (Homo sapiens, UniProt O15379); assay: as above;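 note: fluorogenic acetyl-lysine substrate (20 µM) deacetylated by HDAC3, then developer added for 15 min at room temperature, release of fluorophore read at excitation 360 nm, emission 460 nm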
HDAC3, sequence (O15379 whole entry, species assumed): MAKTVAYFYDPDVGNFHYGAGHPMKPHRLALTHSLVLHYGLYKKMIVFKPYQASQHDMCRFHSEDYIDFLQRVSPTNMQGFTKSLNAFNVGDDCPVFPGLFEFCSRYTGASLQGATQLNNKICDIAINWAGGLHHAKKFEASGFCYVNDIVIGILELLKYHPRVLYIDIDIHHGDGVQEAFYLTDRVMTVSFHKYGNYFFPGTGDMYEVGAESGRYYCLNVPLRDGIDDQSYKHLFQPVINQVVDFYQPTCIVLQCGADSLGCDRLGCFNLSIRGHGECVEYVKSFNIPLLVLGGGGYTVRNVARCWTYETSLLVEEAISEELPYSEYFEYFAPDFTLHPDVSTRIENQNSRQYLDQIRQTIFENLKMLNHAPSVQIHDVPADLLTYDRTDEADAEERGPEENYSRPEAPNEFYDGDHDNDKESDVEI
HDAC3, sequence (Q9Y618 395-489 partner limits assumed, species assumed): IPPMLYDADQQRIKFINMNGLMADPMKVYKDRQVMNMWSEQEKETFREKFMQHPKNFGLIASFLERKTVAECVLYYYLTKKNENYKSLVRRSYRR

HDAC11 = biological target: T2, HDAC11 (Homo sapiens, UniProt Q96DB2); assay: as above;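 note: HDAC11 enzyme acting on an acetyl-lysine fluorogenic substrate, then a developer frees the fluorophore, read at excitation 360 nm and emission 460 nm, IC50 over a compound dilution series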
T2 sequence (Q96DB2 1-347): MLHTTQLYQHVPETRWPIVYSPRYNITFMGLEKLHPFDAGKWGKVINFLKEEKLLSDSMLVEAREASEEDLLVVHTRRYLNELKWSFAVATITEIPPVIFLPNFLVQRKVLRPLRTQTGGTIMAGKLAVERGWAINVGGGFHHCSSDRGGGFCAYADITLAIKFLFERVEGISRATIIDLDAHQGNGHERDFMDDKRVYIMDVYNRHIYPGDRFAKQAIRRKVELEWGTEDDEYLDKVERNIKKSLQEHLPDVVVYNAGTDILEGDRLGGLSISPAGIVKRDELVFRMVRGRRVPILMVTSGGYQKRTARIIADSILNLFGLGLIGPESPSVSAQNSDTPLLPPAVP

[1] = system: KBM-5 (human chronic myelogenous leukemia); assay: MTT cancer cell growth inhibition; assay type: cell-based; conditions: MTT, 72 hours incubation, KBM-5 cells, read-out: GI50 KBM-5
Procedure, shortened: (§1)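 Three-day compound exposure (final 10^−5–10^−10 M, three replicate wells) of cells seeded at 1500 per well precedes a 4 h MTT incubation at 37° C. Viability is taken from 570 nm absorbance after DMSO solubilisation, and GI50 calculated from it.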

[2] = system: N-87 (human gastric cancer cells); assay: MTT cancer cell growth inhibition; assay type: cell-based; conditions: MTT, 72 hours incubation, N-87 cells, read-out: GI50 N-87
Procedure, shortened: as §1

[3] = system: H1975 (non-small cell lung adenocarcinoma); assay: MTT cancer cell growth inhibition; assay type: cell-based; conditions: MTT, 72 hours incubation, H1975 cells, read-out: GI50 H1975
Procedure, shortened: as §1

[4] = system: lncap (prostate cancer cells); assay: MTT cancer cell growth inhibition; assay type: cell-based; conditions: MTT
Procedure, shortened: as §1

[5] = system: PANC-1 (Pac-1, human pancreatic cancer cells); assay: MTT cancer cell growth inhibition; assay type: cell-based; conditions: MTT
Procedure, shortened: as §1

[6] = system: HCC827 (human non-small cell lung cancer cells); assay: MTT cancer cell growth inhibition; assay type: cell-based; conditions: MTT, 72 hours incubation, HCC827 cells, read-out: GI50 HCC827
Procedure, shortened: as §1

[7] = system: K562 (human leukemia cells); assay: MTT cancer cell growth inhibition; assay type: cell-based; conditions: MTT, 72 hours incubation, K562 cells, read-out: GI50 K562
Procedure, shortened: as §1

[8] = Homo sapiens, LNCaP, 72 h, lncap cells, 72 hours incubation, read-out: GI50 lnca
[9] = Homo sapiens, PANC-1, 72 h, PANC-1 cells, 72 hours incubation, read-out: GI50 PAN
[10] = read-out: IC50 HDAC3, HDAC3, 37° C. 30 minutes
[11] = read-out: IC50 HDAC11, HDAC11, 37° C. 30 minutes
[12] = lncap cells, 72 hours incubation, read-out: GI50 lnca
[13] = PANC-1 cells, 72 hours incubation, read-out: GI50 PAN
[14] = Homo sapiens, LNCaP, 72 h, 72 hours, present invention, read-out: GI50 lncap, a
[15] = Homo sapiens, PANC-1, 72 h, 72 hours, present invention, read-out: GI50 PANC-1, a

| SMILES | IC50 (HDAC8) [nM] | IC50 (HDAC3) [nM] | IC50 (HDAC11) [nM] | GI50 ([1]; Homo sapiens, KBM5, 72 h) [nM] | GI50 ([2]; Homo sapiens, 72 h) [nM] | GI50 ([3]; Homo sapiens, NCI-H1975, 72 h) [nM] | GI50 [4, 8] [nM] | GI50 [5, 9] [nM] | GI50 ([6]; Homo sapiens, HCC827, 72 h) [nM] | GI50 ([7]; Homo sapiens, K562, 72 h) [nM] | IC50 (HDAC3; [10]) [nM] | IC50 (HDAC11; [11]) [nM] | GI50 [4, 14] [nM] | GI50 [5, 15] [nM] | also measured |
| --- | --- | --- | --- | --- | --- | --- | --- | --- | --- | --- | --- | --- | --- | --- | --- |
| C/C=C1\NC(=O)c2nc(ccc2SCCC)CNC(=O)C[C@@H](/C=C/CCSC(=O)CCCCCCC)OC(=O)[C@H](CC)NC1=O [Compound 174] | 21 | 26 | 98 | 15 | 31 | 57 | 30 | 100 | 46 | 13 |  |  |  |  |  |
| C/C=C1\NC(=O)c2cc(SCCC)cc(n2)CNC(=O)C[C@@H](/C=C/CCSC(=O)CCCCCCC)OC(=O)[C@H](CC)NC1=O [Compound 175] | 69 | 11 | 55 | 42 | 49 | 42 | 80 | 50 | 13 | 39 |  |  |  |  |  |
| C/C=C1\NC(=O)c2cc(SC)cc(n2)CNC(=O)C[C@@H](/C=C/CCSC(C)=O)OC(=O)[C@H](CC)NC1=O [Compound 178] | 36 | 35 | 99 | 93 | 55 | 89 | 50 | 350 | 32 | 53 |  |  |  |  |  |
| C/C=C1\NC(=O)c2ccc(SC)c(n2)CNC(=O)C[C@@H](/C=C/CCSC(C)=O)OC(=O)[C@H](CC)NC1=O [Compound 179] | 42 | 34 | 92 | 61 | 73 | 54 | 100 | 60 | 25 | 71 |  |  |  |  |  |
| C/C=C1\NC(=O)c2ccc(SC)c(n2)CNC(=O)C[C@@H](/C=C/CCSC(=O)CCCCCCC)OC(=O)[C@H](Cc2ccccc2)NC1=O [Compound 191] | 18 | 62 | 85 | 36 | 11 | 32 | 310 | 50 | 49 | 41 |  |  |  |  |  |
| C/C=C1\NC(=O)c2cc(SC)cc(n2)CNC(=O)C[C@@H](/C=C/CCSC(C)=O)OC(=O)[C@H](CCCCN)NC1=O [Compound 193] | 49 | 39 | 93 | 31 | 23 | 11 | 80 | 80 | 18 | 35 |  |  |  |  |  |
| C=C1NC(=O)c2cc(SC)cc(n2)CNC(=O)C[C@@H](/C=C/CCSC(C)=O)OC(=O)[C@H](C(C)C)NC1=O [Compound 205] | 62 | 38 | 77 | 15 | 49 | 64 | 60 | 30 | 62 | 53 |  |  |  |  |  |
| C/C=C1\NC(=O)c2nc(cc(SC)n2)CNC(=O)C[C@@H](/C=C/CCSC(C)=O)OC(=O)[C@H](C(C)C)NC1=O [Compound 216] | 52 |  |  |  |  |  |  |  |  |  | 62 | 81 |  |  | GI50 [1]: 38 nM; GI50 [2]: 37 nM; GI50 [3]: 87 nM; GI50 [4, 12]: 10 nM; GI50 [5, 13]: 20 nM; GI50 [6]: 59 nM; GI50 [7]: 56 nM |
| C/C=C1\NC(=O)c2ncc(SC)c(n2)CNC(=O)C[C@@H](/C=C/CCSC(C)=O)OC(=O)[C@H](C(C)C)NC1=O [Compound 217] | 78 |  |  |  |  |  |  |  |  |  | 122 | 93 |  |  | GI50 [1]: 41 nM; GI50 [2]: 57 nM; GI50 [3]: 43 nM; GI50 [4, 12]: 30 nM; GI50 [5, 13]: 70 nM; GI50 [6]: 29 nM; GI50 [7]: 62 nM |
| C/C=C1\NC(=O)c2cc(SC)cc(n2)CNC(=O)C[C@@H](/C=C/CCSC(C)=O)OC(=O)[C@H](C(C)C)NC1=O [Compound 224] | 752 |  |  |  |  |  |  |  |  |  | 563 | 279 |  |  | GI50 [1]: 16 nM; GI50 [2]: 17 nM; GI50 [3]: 96 nM; GI50 [4, 12]: 30 nM; GI50 [5, 13]: 60 nM; GI50 [6]: 52 nM; GI50 [7]: 23 nM |
| C/C=C1\NC(=O)c2nc(ccc2SC)CNC(=O)C[C@@H](/C=C/CCS)OC(=O)[C@H](C)NC1=O [Compound 232] | 59 | 21 | 152 | 8 | 45 | 56 | 30 | 10 | 38 | 42 |  |  |  |  |  |
| C/C=C1\NC(=O)c2cccc(n2)CNC(=O)C[C@@H](/C=C/CCSC(=O)CCCCCCC)OC(=O)CNC1=O [Compound 235] | 47 |  |  | 27 | 63 | 63 | 40 | 230 | 85 | 42 | 35 | 19 | 40 | 230 |  |
| C/C=C1\NC(=O)c2cccc(n2)CNC(=O)C[C@@H](/C=C/CCSC(=O)CCCCCCC)OC(=O)[C@@H](C)NC1=O [Compound 236] | 67 |  |  | 33 | 26 | 72 | 50 | 210 | 26 | 73 | 66 | 72 | 530 | 210 |  |
| C/C=C1\NC(=O)c2cccc(n2)CNC(=O)C[C@@H](/C=C/CCSC(=O)CCCCCCC)OC(=O)[C@H](C(C)(C)C)NC1=O [Compound 237] | 43 |  |  | 49 | 58 | 83 | 940 | 930 | 25 | 69 | 35 | 77 | 940 | 930 |  |
| C/C=C1\NC(=O)c2cccc(n2)CNC(=O)C[C@@H](/C=C/CCSC(=O)CCCCCCC)OC(=O)[C@H](c2ccc(O)cc2)NC1=O [Compound 238] | 78 |  |  | 52 | 26 | 82 | 110 | 70 | 29 | 65 | 59 | 65 | 110 | 77 |  |
| C/C=C1\NC(=O)c2cccc(n2)CNC(=O)C[C@@H](/C=C/CCSC(=O)CCCCCCC)OC(=O)[C@H](Cc2cccc3ccccc23)NC1=O [Compound 239] | 89 |  |  | 29 | 46 | 91 | 10 | 130 | 31 | 63 | 47 | 28 | 17 | 130 |  |
| C/C=C1\NC(=O)c2cccc(n2)CNC(=O)C[C@@H](/C=C/CCSC(=O)CCCCCCC)OC(=O)[C@H](CCSC)NC1=O [Compound 240] | 52 | 53 | 56 | 71 | 96 | 56 | 10 | 110 | 66 | 47 |  |  | 70 | 190 |  |
